Reference: US20210045385A1, “PYRIDAZINONE-SUBSTITUTED KETOXIMES AS HERBICIDES” (FMC Corporation, priority 2018, published 2021)

Experiments:
Format in all cases: in vivo
[1] = system: foxtail, green (green foxtail, Setaria viridis); assay: Test A preemergence, visual plant response rating; conditions: approx. 10 days
Method in brief: (§1)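 Formulated in a non-phytotoxic solvent mixture including surfactant, each test chemical was sprayed onto the soil surface after sowing, or onto seedlings 2 to 10 cm high. Roughly 10 days later, plants were compared with untreated controls and rated for injury from 0 (no effect) to 100 (complete control).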

kochia (Kochia scoparia) [2] = assay: Test A preemergence, visual plant response rating; conditions: approx. 10 days
Method in brief: as §1

[3] = system: barnyardgrass (Echinochloa crus-galli); assay: Test A preemergence, visual plant response rating; conditions: approx. 10 days
Method in brief: as §1

[4] = system: Italian ryegrass (Lolium multiflorum); assay: Test A preemergence, visual plant response rating; conditions: approx. 10 days
Method in brief: as §1

[5] = system: pigweed (Amaranthus retroflexus); assay: Test A preemergence, visual plant response rating; conditions: approx. 10 days
Method in brief: as §1

[6] = system: ragweed (common ragweed, Ambrosia elatior); assay: Test A preemergence, visual plant response rating; conditions: approx. 10 days
Method in brief: as §1

[7] = system: sedge, umbrella (small-flower umbrella sedge, Cyperus difformis); assay: Test B flooded paddy test, visual plant response rating; conditions: 250 g ai/ha, Flood, applied to paddy water, 2-leaf stage, evaluated after 13 to 15 days
Method in brief: (§2)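 Greenhouse paddy conditions applied: two-leaf plants, a 3 cm flood above the soil surface maintained throughout, and compound added to the water rather than the foliage. Plants were judged visually against controls at 13 to 15 days.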

[8] = system: barnyardgrass (Echinochloa crus-galli); assay: as above; conditions: 250 g ai/ha, Flood, applied to paddy water, 2-leaf stage, evaluated after 13 to 15 days
Method in brief: as §2

rice (Oryza sativa) [9] = assay: as above; conditions: 250 g ai/ha, Flood, applied to paddy water, 2-leaf stage, evaluated after 13 to 15 days
Method in brief: as §2

[10] = system: ducksalad (Heteranhera limosa); assay: as above; conditions: 250 g ai/ha, Flood, applied to paddy water, 2-leaf stage, evaluated after 13 to 15 days
Method in brief: as §2

corn (Zea mays) [11] = assay: Test A postemergence, visual plant response rating
Method in brief: as §1

[12] = system: foxtail, green (green foxtail, Setaria viridis); assay: Test A postemergence, visual plant response rating
Method in brief: as §1

kochia (Kochia scoparia) [13] = assay: Test A postemergence, visual plant response rating
Method in brief: as §1

[14] = system: barnyardgrass (Echinochloa crus-galli); assay: Test A postemergence, visual plant response rating
Method in brief: as §1

[15] = system: blackgrass (Alopecurus myosuroides); assay: Test A postemergence, visual plant response rating
Method in brief: as §1

[16] = system: wheat (Triticum aestivum); assay: Test A postemergence, visual plant response rating
Method in brief: as §1

[17] = system: Italian ryegrass (Lolium multiflorum); assay: Test A postemergence, visual plant response rating
Method in brief: as §1

[18] = system: pigweed (Amaranthus retroflexus); assay: Test A postemergence, visual plant response rating
Method in brief: as §1

[19] = system: ragweed (common ragweed, Ambrosia elatior); assay: Test A postemergence, visual plant response rating
Method in brief: as §1

[20] = system: foxtail, giant (giant foxtail, Setaria faberi); assay: Test C postemergence, visual plant response rating
Method in brief: (§3)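 Visual injury on a 0 (no effect) to 100 (complete control) scale versus untreated controls, scored approximately 10 d after treatment under greenhouse conditions. Treatments used surfactant-containing non-phytotoxic solvent formulations, sprayed onto loam–sand soil preemergence or onto one- to two-leaf plants 2–10 cm tall postemergence.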

corn (Zea mays) [21] = assay: Test C postemergence, visual plant response rating
Method in brief: as §3

[22] = system: barnyardgrass (Echinochloa crus-galli); assay: Test C postemergence, visual plant response rating
Method in brief: as §3

[23] = system: blackgrass (Alopecurus myosuroides); assay: Test C postemergence, visual plant response rating
Method in brief: as §3

[24] = system: galium (catchweed bedstraw, Galium aparine); assay: Test C postemergence, visual plant response rating
Method in brief: as §3

[25] = system: wheat (Triticum aestivum); assay: Test C postemergence, visual plant response rating
Method in brief: as §3

kochia (Bassia scoparia) [26] = assay: Test C postemergence, visual plant response rating
Method in brief: as §3

[27] = system: ragweed (common ragweed, Ambrosia artemisiifolia); assay: Test C postemergence, visual plant response rating
Method in brief: as §3

[28] = system: Italian ryegrass (Lolium mutiflorum); assay: Test C postemergence, visual plant response rating
Method in brief: as §3

[29] = system: pigweed (Amaranthus retroflexus); assay: Test C postemergence, visual plant response rating
Method in brief: as §3

[30] = system: barnyardgrass (Echinochloa crus-galli); assay: Test D flooded paddy test, visual plant response rating; conditions: 250 g ai/ha, scale 0 to 100 (0 no effect, 100 complete control), 13 to 15 d
Method in brief: (§4)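 Rating is visual, on a 0 (no effect) to 100 (complete control) scale versus controls, taken 13 to 15 d after treatment in a greenhouse. Treatment went into paddy water kept 3 cm above the soil surface, with plants at the 2-leaf stage.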

[31] = system: sedge umbrella (small-flower umbrella sedge, Cyperus difformis); assay: as above; conditions: 250 g ai/ha, scale 0 to 100 (0 no effect, 100 complete control), 13 to 15 d
Method in brief: as §4

rice (Oryza sativa) [32] = assay: as above; conditions: 250 g ai/ha, scale 0 to 100 (0 no effect, 100 complete control), 13 to 15 d
Method in brief: as §4

[33] = system: duck salad (Heteranthera limosa); assay: as above; conditions: 250 g ai/ha, scale 0 to 100 (0 no effect, 100 complete control), 13 to 15 d
Method in brief: as §4

[34] = system: foxtail, giant (giant foxtail, Setaria faberi); assay: Test C preemergence, visual plant response rating; conditions: Test C, 0 is no effect, 100 is complete control
Method in brief: as §3

[35] = system: barnyardgrass (Echinochloa crus-galli); assay: Test C preemergence, visual plant response rating; conditions: Test C, 0 is no effect, 100 is complete control
Method in brief: as §3

kochia (Bassia scoparia) [36] = assay: Test C preemergence, visual plant response rating; conditions: Test C, 0 is no effect, 100 is complete control
Method in brief: as §3

[37] = system: ragweed (common ragweed, Ambrosia artemisiifolia); assay: Test C preemergence, visual plant response rating; conditions: Test C, 0 is no effect, 100 is complete control
Method in brief: as §3

[38] = system: Italian ryegrass (Lolium mutiflorum); assay: Test C preemergence, visual plant response rating; conditions: Test C, 0 is no effect, 100 is complete control
Method in brief: as §3

[39] = system: pigweed (Amaranthus retroflexus); assay: Test C preemergence, visual plant response rating; conditions: Test C, 0 is no effect, 100 is complete control
Method in brief: as §3

[40] = 500 g ai/ha, postemergence, 0 is no effect, 100 is complete control
[41] = Postemergence, 125 g ai/ha, 0 to 100 scale (0 no effect, 100 complete control)
[42] = Test C, postemergence, 125 g ai/ha

## CO/N=C(/c1cccc(Cl)c1)c1c(O)c(C)nn(C)c1=O [Compound 11, 4-[(Z)-(3-chlorophenyl)(methoxyimino)methyl]-5-hydroxy-2,6-dimethyl-3(2H)-pyridazinone]
[1]; 125 g ai/ha Preemergence
  Foxtail, Green plant response rating (0 to 100 scale): 0
[1]; 500 g ai/ha Preemergence
  Foxtail, Green plant response rating (0 to 100 scale): 70
Kochia (Kochia scoparia) [2]; 125 g ai/ha Preemergence
  Kochia plant response rating (0 to 100 scale): 10
Kochia (Kochia scoparia) [2]; 500 g ai/ha Preemergence
  Kochia plant response rating (0 to 100 scale): 80
[3]; 125 g ai/ha Preemergence
  Barnyardgrass plant response rating (0 to 100 scale): 0
[3]; 500 g ai/ha Preemergence
  Barnyardgrass plant response rating (0 to 100 scale): 40
[4]; 125 g ai/ha Preemergence
  Ryegrass, Italian plant response rating (0 to 100 scale): 60
[4]; 500 g ai/ha Preemergence
  Ryegrass, Italian plant response rating (0 to 100 scale): 80
[5]; 125 g ai/ha Preemergence
  Pigweed plant response rating (0 to 100 scale): 40
[5]; 500 g ai/ha Preemergence
  Pigweed plant response rating (0 to 100 scale): 100
[6]; 125 g ai/ha Preemergence
  Ragweed plant response rating (0 to 100 scale): 50
[6]; 500 g ai/ha Preemergence
  Ragweed plant response rating (0 to 100 scale): 50
[7]
  Plant response rating, Sedge, Umbrella (0 to 100 scale, 0 is no effect, 100 is complete control): 0
[8]
  Plant response rating, Barnyardgrass (0 to 100 scale, 0 is no effect, 100 is complete control): 0
Rice (Oryza sativa) [9]
  Plant response rating, Rice (0 to 100 scale, 0 is no effect, 100 is complete control): 0
[10]
  Plant response rating, Ducksalad (0 to 100 scale, 0 is no effect, 100 is complete control): 0
Corn (Zea mays) [11]; [40]
  Corn plant response rating (0 to 100 scale): 10
Corn (Zea mays) [11]; [41]
  Corn plant response rating: 0
[12]; [40]
  Foxtail, Green plant response rating (0 to 100 scale): 40
[12]; [41]
  Foxtail, Green plant response rating: 10
Kochia (Kochia scoparia) [13]; [40]
  Kochia plant response rating (0 to 100 scale): 80
Kochia (Kochia scoparia) [13]; [41]
  Kochia plant response rating: 70
[14]; [40]
  Barnyardgrass plant response rating (0 to 100 scale): 10
[14]; [41]
  Barnyardgrass plant response rating: 10
[15]; [40]
  Blackgrass plant response rating (0 to 100 scale): 70
[15]; [41]
  Blackgrass plant response rating: 30
[16]; [40]
  Wheat plant response rating (0 to 100 scale): 10
[16]; [41]
  Wheat plant response rating: 0
[17]; [40]
  Ryegrass, Italian plant response rating (0 to 100 scale): 80
[17]; [41]
  Ryegrass, Italian plant response rating: 60
[18]; [40]
  Pigweed plant response rating (0 to 100 scale): 80
[18]; [41]
  Pigweed plant response rating: 40
[19]; [40]
  Ragweed plant response rating (0 to 100 scale): 100
[19]; [41]
  Ragweed plant response rating: 80

## CC(C)O/N=C(/c1c(O)cnn(C)c1=O)c1ccc(F)c2ccccc12 [Compound 302]
[20]; Postemergence, 31 g ai/ha
  Foxtail, Giant plant response rating (0 to 100 scale): 10
[20]; [42]
  Foxtail, Giant plant response rating (0 to 100 scale): 30
Corn (Zea mays) [21]; Postemergence, 31 g ai/ha
  Corn plant response rating (0 to 100 scale): 0
Corn (Zea mays) [21]; [42]
  Corn plant response rating (0 to 100 scale): 0
[22]; Postemergence, 31 g ai/ha
  Barnyardgrass plant response rating (0 to 100 scale): 0
[22]; [42]
  Barnyardgrass plant response rating (0 to 100 scale): 0
[23]; Postemergence, 31 g ai/ha
  Blackgrass plant response rating (0 to 100 scale): 0
[23]; [42]
  Blackgrass plant response rating (0 to 100 scale): 0
[24]; Postemergence, 31 g ai/ha
  Galium plant response rating (0 to 100 scale): 20
[24]; [42]
  Galium plant response rating (0 to 100 scale): 60
[25]; Postemergence, 31 g ai/ha
  Wheat plant response rating (0 to 100 scale): 0
[25]; [42]
  Wheat plant response rating (0 to 100 scale): 0
Kochia (Bassia scoparia) [26]; Postemergence, 31 g ai/ha
  Kochia plant response rating (0 to 100 scale): 0
Kochia (Bassia scoparia) [26]; [42]
  Kochia plant response rating (0 to 100 scale): 20
[27]; Postemergence, 31 g ai/ha
  Ragweed plant response rating (0 to 100 scale): 0
[27]; [42]
  Ragweed plant response rating (0 to 100 scale): 20
[28]; Postemergence, 31 g ai/ha
  Ryegrass, Italian plant response rating (0 to 100 scale): 0
[28]; [42]
  Ryegrass, Italian plant response rating (0 to 100 scale): 30
[29]; Postemergence, 31 g ai/ha
  Pigweed plant response rating (0 to 100 scale): 30
[29]; [42]
  Pigweed plant response rating (0 to 100 scale): 60
[30]
  Plant response rating, Barnyardgrass (Flood): 0
[31]
  Plant response rating, Sedge, Umbrella (Flood): 0
Rice (Oryza sativa) [32]
  Plant response rating, Rice (Flood): 0
[33]
  Plant response rating, Ducksalad (Flood): 0
[34]; 31 g ai/ha
  Foxtail, Giant plant response rating (0 to 100 scale): 0
[34]; 125 g ai/ha
  Foxtail, Giant plant response rating (0 to 100 scale): 10
[35]; 31 g ai/ha
  Barnyardgrass plant response rating (0 to 100 scale): 0
[35]; 125 g ai/ha
  Barnyardgrass plant response rating (0 to 100 scale): 0
Kochia (Bassia scoparia) [36]; 31 g ai/ha
  Kochia plant response rating (0 to 100 scale): 0
Kochia (Bassia scoparia) [36]; 125 g ai/ha
  Kochia plant response rating (0 to 100 scale): 0
[37]; 31 g ai/ha
  Ragweed plant response rating (0 to 100 scale): 0
[37]; 125 g ai/ha
  Ragweed plant response rating (0 to 100 scale): 20
[38]; 31 g ai/ha
  Ryegrass, Italian plant response rating (0 to 100 scale): 0
[38]; 125 g ai/ha
  Ryegrass, Italian plant response rating (0 to 100 scale): 0
[39]; 31 g ai/ha
  Pigweed plant response rating (0 to 100 scale): 10
[39]; 125 g ai/ha
  Pigweed plant response rating (0 to 100 scale): 40
